# Tested on: Ehrlich tumour cells (murine mammary adenocarcinoma)
# Experiment: Effect of isomers and BLAS on in vivo tumour growth, Ehrlich tumours (Example 9)
# Set-up: species or system Balb/c mice
# Conditions: for Tumour surface, overall values (Mean) / Tumour surface, overall values (Median) / Tumour volume, overall values (Mean) / Tumour volume, overall values (Median): 260 ng/mouse i.p. days 6, 7 and 14
# Excerpt: This assay was made in order to compare the effect of each stereoisomer on in vivo tumour growth in mice with the effect of the mixture of all of them challenged with Ehlrich tumours. The same products, equipment, reagents, doses, vehicle and route of administration as in example 8 were used.
# Mice were inoculated with Ehrlich tumour cells. It was described as a murine mammary adenocarcinoma. Ehrlich tumour is a murine mammary carcinoma originally raised in an outbred mouse, and therefore it belongs to the so-called non-specific tumours (Subiza J L, Viñuela J E, Rodriguez R, Gil J, Figueredo M A, de la Concha. E G. Development of splenic natural suppressor (NS) cells in Ehrlich tumor bearing mice. Int J Cancer, 44:307 315; 1989). It may grow across histocompatibility barriers and therefore is not mouse strain specific (Carry P J, Prescott D M, Ogilvie G K. Resistance to Ehrlich ascites tumor in a strain of dystrophic mice. Cancer Res., 39:2139-2140; 1979).
# Ehrlich cells were maintained in vitro by serial passages every 3-4 days. Cultures were performed with RPMI medium medium (RPMI, 10% foetal calf serum, 2 mM L-glutamine, non essential aminoacids, 1 mM sodium pyruvate, 20 mM HEPES, 80 μg/mL gentamycin; all of them were purchased from Sigma, St. Louis, Mo., USA) by seeding 5×10^6 cells onto 75 cm^2 culture flasks. Tumour cells collected from 48 hour cultures were used as source of cells for the studies described below.
# Tumours were established by subcutaneous inoculation in the right hind flank. Mice (Balb/c) were inoculated with 0.2 mL containing 2×10^5 viable Ehrlich cells. The day of subcutaneous inoculation will be considered Day 0 of the test.
# Mice were observed daily and the tumour size recorded twice a week. This was carried out by measuring two perpendicular diameters (L/W) with a calliper. These measures were used to obtain both tumour surface and volume: Tumour surface=L×W(mm^2) Tumour volume=L×W^2×½(mm^3)
# Results were expressed as single values and/or as the mean±SD or median from each experimental group.
# A case-control study was performed with treated and control mice in order to determine whether differences between BLAS or each diferent stereoisomer and administration of placebo were present. […] The U-test of Mann Withney was chosen for being one of the better known non-parametrical tests, anyway, results for this test are equivalent both to those of Wilcoxon's sum of ranges and Kruskal-Wallis two-groups test.
# [1] = day 13 after tumour inoculation
# [2] = day 16 after tumour inoculation
# [3] = day 20 after tumour inoculation
# [4] = day 23 after tumour inoculation
# [5] = day 29 after tumour inoculation
# [6] = day 31 after tumour inoculation
# [7] = day 35 after tumour inoculation
# [8] = day 38 after tumour inoculation
# [9] = either in surface or volume, all days scored after the day 8th
compound,measurement,setting,value
"Br.N[C@@]1(C[n+]2ccccc2)C[C@H](C(=O)O)NC1=O.[Br-] (single isomer, unassigned; isomer 2) [isomer 2, 3R,5R-1-(3-Amino-5-carboxy-2-oxopyrrolidin-3-ylmethyl)pyridinium bromide hidrobromide]","Inhibition of the in vivo growth of Ehrlich tumour cells, in words","260 ng i.p. days 6, 7 and 14",inhibit the in vivo growth
same,"Tumour surface, overall values (Mean)",day 0 after tumour inoculation,0 mm^2
same,"Tumour surface, overall values (Median)",day 0 after tumour inoculation,0 mm^2
same,"Tumour volume, overall values (Mean)",day 0 after tumour inoculation,0 mm^3
same,"Tumour volume, overall values (Median)",day 0 after tumour inoculation,0 mm^3
same,"Tumour surface, overall values (Mean)",day 8 after tumour inoculation,6.69 mm^2
same,"Tumour surface, overall values (Median)",day 8 after tumour inoculation,4 mm^2
same,"Tumour volume, overall values (Mean)",day 8 after tumour inoculation,10.97 mm^3
same,"Tumour volume, overall values (Median)",day 8 after tumour inoculation,4 mm^3
same,"Tumour surface, overall values (Mean)",[1],14.81 mm^2
same,"Tumour surface, overall values (Median)",[1],16 mm^2
same,"Tumour volume, overall values (Mean)",[1],32.16 mm^3
same,"Tumour volume, overall values (Median)",[1],32 mm^3
same,"Tumour surface, overall values (Mean)",[2],20.37 mm^2
same,"Tumour surface, overall values (Median)",[2],20 mm^2
same,"Tumour volume, overall values (Mean)",[2],51.87 mm^3
same,"Tumour volume, overall values (Median)",[2],40 mm^3
same,"Tumour surface, overall values (Mean)",[3],28.37 mm^2
same,"Tumour surface, overall values (Median)",[3],27.5 mm^2
same,"Tumour volume, overall values (Mean)",[3],81.81 mm^3
same,"Tumour volume, overall values (Median)",[3],68.75 mm^3
same,"Tumour surface, overall values (Mean)",[4],35.75 mm^2
same,"Tumour surface, overall values (Median)",[4],33 mm^2
same,"Tumour volume, overall values (Mean)",[4],113.75 mm^3
same,"Tumour volume, overall values (Median)",[4],91.5 mm^3
same,"Tumour surface, overall values (Mean)",[5],46.12 mm^2
same,"Tumour volume, overall values (Mean)",[5],167 mm^3
same,"Tumour surface, overall values (Mean)",[6],50.06 mm^2
same,"Tumour surface, overall values (Median)",[6],45 mm^2
same,"Tumour volume, overall values (Mean)",[6],191.91 mm^3
same,"Tumour volume, overall values (Median)",[6],135 mm^3
same,"Tumour surface, overall values (Mean)",[7],60.25 mm^2
same,"Tumour surface, overall values (Median)",[7],51 mm^2
same,"Tumour volume, overall values (Mean)",[7],258.06 mm^3
same,"Tumour volume, overall values (Median)",[7],153 mm^3
same,"Tumour surface, overall values (Mean)",[8],75.37 mm^2
same,"Tumour surface, overall values (Median)",[8],71 mm^2
same,"Tumour volume, overall values (Mean)",[8],372.5 mm^3
same,"Tumour volume, overall values (Median)",[8],266.5 mm^3
same,"Differences in Ehrlich tumour growth rate vs. placebo, statistical significance p (Mann-Whitney U test)","either in surface or volume, all days scored after the day 13th",< 0.05
"Br.N[C@]1(C[n+]2ccccc2)C[C@@H](C(=O)O)NC1=O.[Br-] (single isomer, unassigned; isomer 3) [isomer 3, 3S,5S-1-(3-Amino-5-carboxy-2-oxopyrrolidin-3-ylmethyl)pyridinium bromide hidrobromide]","Inhibition of the in vivo growth of Ehrlich tumour cells, in words","260 ng i.p. days 6, 7 and 14",inhibit the in vivo growth
same,"Inhibitory effect on Ehrlich tumour growth compared among treatments, in words","260 ng i.p. days 6, 7 and 14",highest inhibitory effect
same,"Tumour surface, overall values (Mean)",day 0 after tumour inoculation,0 mm^2
same,"Tumour surface, overall values (Median)",day 0 after tumour inoculation,0 mm^2
same,"Tumour volume, overall values (Mean)",day 0 after tumour inoculation,0 mm^3
same,"Tumour volume, overall values (Median)",day 0 after tumour inoculation,0 mm^3
same,"Tumour surface, overall values (Mean)",day 8 after tumour inoculation,3.62 mm^2
same,"Tumour surface, overall values (Median)",day 8 after tumour inoculation,0 mm^2
same,"Tumour volume, overall values (Mean)",day 8 after tumour inoculation,6 mm^3
same,"Tumour volume, overall values (Median)",day 8 after tumour inoculation,0 mm^3
same,"Tumour surface, overall values (Mean)",[1],10.94 mm^2
same,"Tumour surface, overall values (Median)",[1],9 mm^2
same,"Tumour volume, overall values (Mean)",[1],23.53 mm^3
same,"Tumour volume, overall values (Median)",[1],13.5 mm^3
same,"Tumour surface, overall values (Mean)",[2],16.5 mm^2
same,"Tumour surface, overall values (Median)",[2],16 mm^2
same,"Tumour volume, overall values (Mean)",[2],37.12 mm^3
same,"Tumour volume, overall values (Median)",[2],32 mm^3
same,"Tumour surface, overall values (Mean)",[3],24.12 mm^2
same,"Tumour surface, overall values (Median)",[3],20 mm^2
same,"Tumour volume, overall values (Mean)",[3],65.12 mm^3
same,"Tumour volume, overall values (Median)",[3],40 mm^3
same,"Tumour surface, overall values (Mean)",[4],32.25 mm^2
same,"Tumour surface, overall values (Median)",[4],25 mm^2
same,"Tumour volume, overall values (Mean)",[4],100.44 mm^3
same,"Tumour volume, overall values (Median)",[4],62.5 mm^3
same,"Tumour surface, overall values (Mean)",[5],42.94 mm^2
same,"Tumour surface, overall values (Median)",[5],27.5 mm^2
same,"Tumour volume, overall values (Mean)",[5],156.34 mm^3
same,"Tumour volume, overall values (Median)",[5],68.75 mm^3
same,"Tumour surface, overall values (Mean)",[6],53.37 mm^2
same,"Tumour surface, overall values (Median)",[6],36 mm^2
same,"Tumour volume, overall values (Mean)",[6],213.31 mm^3
same,"Tumour volume, overall values (Median)",[6],100.5 mm^3
same,"Tumour surface, overall values (Mean)",[7],66 mm^2
same,"Tumour surface, overall values (Median)",[7],43 mm^2
same,"Tumour volume, overall values (Mean)",[7],293.87 mm^3
same,"Tumour volume, overall values (Median)",[7],135.5 mm^3
same,"Tumour surface, overall values (Mean)",[8],79.37 mm^2
same,"Tumour surface, overall values (Median)",[8],49.5 mm^2
same,"Tumour volume, overall values (Mean)",[8],387.69 mm^3
same,"Tumour volume, overall values (Median)",[8],164.25 mm^3
same,"Differences in Ehrlich tumour growth rate vs. placebo, statistical significance p (Mann-Whitney U test)",[9],< 0.05
same,"Differences in Ehrlich tumour growth rate BLAS vs. isomer 3, statistical significance p (Mann-Whitney U test)","either in surface or volume, days 13th, 16th, 20th and 23th",< 0.05
"Br.N[C@]1(C[n+]2ccccc2)C[C@H](C(=O)O)NC1=O.[Br-] (single isomer, unassigned; isomer 4) [isomer 4, 3S,5R-1-(3-Amino-5-carboxy-2-oxopyrrolidin-3-ylmethyl)pyridinium bromide hidrobromide]","Inhibition of the in vivo growth of Ehrlich tumour cells, in words","260 ng i.p. days 6, 7 and 14",inhibit the in vivo growth
same,"Tumour surface, overall values (Mean)",day 0 after tumour inoculation,0 mm^2
same,"Tumour surface, overall values (Median)",day 0 after tumour inoculation,0 mm^2
same,"Tumour volume, overall values (Mean)",day 0 after tumour inoculation,0 mm^3
same,"Tumour volume, overall values (Median)",day 0 after tumour inoculation,0 mm^3
same,"Tumour surface, overall values (Mean)",day 8 after tumour inoculation,3.37 mm^2
same,"Tumour surface, overall values (Median)",day 8 after tumour inoculation,0 mm^2
same,"Tumour volume, overall values (Mean)",day 8 after tumour inoculation,5.94 mm^3
same,"Tumour volume, overall values (Median)",day 8 after tumour inoculation,0 mm^3
same,"Tumour surface, overall values (Mean)",[1],12.44 mm^2
same,"Tumour surface, overall values (Median)",[1],12.5 mm^2
same,"Tumour volume, overall values (Mean)",[1],26.91 mm^3
same,"Tumour volume, overall values (Median)",[1],22.75 mm^3
same,"Tumour surface, overall values (Mean)",[2],20.19 mm^2
same,"Tumour surface, overall values (Median)",[2],18 mm^2
same,"Tumour volume, overall values (Mean)",[2],50.34 mm^3
same,"Tumour volume, overall values (Median)",[2],36 mm^3
same,"Tumour surface, overall values (Mean)",[3],31.31 mm^2
same,"Tumour surface, overall values (Median)",[3],27.5 mm^2
same,"Tumour volume, overall values (Mean)",[3],95.59 mm^3
same,"Tumour volume, overall values (Median)",[3],68.75 mm^3
same,"Tumour surface, overall values (Mean)",[4],43.06 mm^2
same,"Tumour surface, overall values (Median)",[4],39 mm^2
same,"Tumour volume, overall values (Mean)",[4],156.53 mm^3
same,"Tumour volume, overall values (Median)",[4],117 mm^3
same,"Tumour surface, overall values (Mean)",[5],52.94 mm^2
same,"Tumour surface, overall values (Median)",[5],45 mm^2
same,"Tumour volume, overall values (Mean)",[5],214.91 mm^3
same,"Tumour volume, overall values (Median)",[5],135 mm^3
same,"Tumour surface, overall values (Mean)",[6],63.12 mm^2
same,"Tumour surface, overall values (Median)",[6],48.5 mm^2
same,"Tumour volume, overall values (Mean)",[6],274.94 mm^3
same,"Tumour volume, overall values (Median)",[6],157.75 mm^3
same,"Tumour surface, overall values (Mean)",[7],76.31 mm^2
same,"Tumour surface, overall values (Median)",[7],52.5 mm^2
same,"Tumour volume, overall values (Mean)",[7],379.72 mm^3
same,"Tumour volume, overall values (Median)",[7],183.75 mm^3
same,"Tumour surface, overall values (Mean)",[8],91.56 mm^2
same,"Tumour surface, overall values (Median)",[8],68 mm^2
same,"Tumour volume, overall values (Mean)",[8],504.22 mm^3
same,"Tumour volume, overall values (Median)",[8],272 mm^3
same,"Differences in Ehrlich tumour growth rate vs. placebo, statistical significance p (Mann-Whitney U test)",[9],< 0.05
same,"Ehrlich tumour growth vs. placebo, tendency p","surface, day 35th",0.061
same,"Ehrlich tumour growth vs. placebo, tendency p","surface, day 38th",0.08
same,"Ehrlich tumour growth vs. placebo, tendency p","volume, days 35th and 38th (both of them)",0.102
